Legend:
in vivo [1] = conditions: hairless, guinea pig
Procedure: The retainer ring containing the patch was loaded onto an impact applicator, and the patch was applied to the prepared skin site with an impact energy of 0.26 J, delivered in less than 10 ms.
Efficiency of delivery was calculated as the percentage delivered of the total dose coated onto the array. For mass balance calculations, drug residuals left on the skin and on the array were also taken into account.

in vivo [2] = conditions: hairless, guinea pig; remark: listed apart in the source
[3] = test system: plasma coagulation Factor VIII; assay: pharmacodynamic effect on plasma coagulation Factor VIII levels (one-stage clotting assay); assay type: in vivo, human
Procedure: (§1) Methods: This was a 2-part study in healthy human volunteers (18-45 years). […] All treatments were administered 30 minutes after a subcutaneous injection of low-molecular weight heparin to counteract the increase in clotting factors in the healthy volunteer population. […] Topical effects were also examined. Pain upon patch application was scored and compared to subcutaneous saline injection with a 27-gauge needle. […] Bleeding assessment (visual and photographic) were measured 2 min post-system removal. […] Routine safely assessments were also included, including the following: solicitation of Adverse Events (AEs), measurement of vital signs, measurement of serum sodium concentration and platelets, and measurement of urine output, specific gravity and osmolality.

[4] = cited from earlier work
clinical = conditions: both, human, in vivo, iv
Procedure: as §1
Data analysis included a review of PK parameters (Cmax, Tmax, elimination rate constant, apparent half-life, and AUCinf) and were estimated using standard methodology. […] The intra-individual (sigma) and inter-individual (CV %) variabilities were estimated using additive+proportional and log normal distributions, respectively. Model performance between hierarchical models was assessed both numerically (Objective Function, OBJ) and graphically (comparison of the predicted and observed data). A reduction of^3 6.7 units in OBJ per additional structural model parameter was considered significant at p<0.01 on the x^2 distribution.

[5] = skin response / tolerability of microneedle patches; assay type: in vivo
Source text: Following system removal, skin sites were visually assessed for signs of erythema, edema, bleeding, and infection until the sites returned to normal.

[6] = desmopressin-coated microneedle patches

NC(=O)CC[C@@H]1NC(=O)[C@H](Cc2ccccc2)NC(=O)[C@H](Cc2ccc(O)cc2)NC(=O)CCSSC[C@@H](C(=O)N2CCC[C@H]2C(=O)N[C@H](CCCN=C(N)N)C(=O)NCC(N)=O)NC(=O)[C@H](CC(N)=O)NC1=O [desmopressin]
dose excreted (in vivo [1]; iv, 20 ug): 71%
bioavailability (in vivo [1]; outbred euthymic (ibm:GOHI-hr and IAF:HA-HO-hr)): 85%
AUC (in vivo [2]; 82 ug): 76 ng·h/mL
Cmax (in vivo [2]; 82 ug): 49 ng/mL
AUC (in vivo [2]; iv, 11 ug): 50.5 ng·h/mL
Tmax (in vivo [2]; outbred euthymic (ibm:GOHI-hr and IAF:HA-HO-hr), 82 ug): 1 h
Factor VIII value ([3]; IV-15 ug): 280 % of baseline value
Factor VIII value ([3]; IV-30 ug): 321 % of baseline value
pharmacological activity of absorbed desmopressin (factor VIII measurements) ([3]; desmopressin absorbed after MFLX / IV): pharmacologically active
nasal bioavailability ([4]; human, in vivo, inhaled or intranasal): 3.4%
oral bioavailability ([4]; oral administration): 0.1%
Tmax (clinical): 0.26 h
t1/2 (clinical): 3.8 ± 1.25 h
Tmax (clinical; 15 ug, time of peak concentration): 0.25 h
Tmax (clinical; Tmax): 0.5 h
half-life (clinical; mean half-life): 3.1 to 3.8 h
half-life (clinical; t1/2): 3.1 ± 0.38 h
tolerability of the desmopressin-coated microneedle patches ([5]; 5 or 15 min wear): well tolerated
erythema following removal of the systems [5, 6]: only mild erythema
signs of edema, bleeding, or infection [5, 6]: no signs of edema, bleeding, or infection
time to resolution of erythema [5, 6]: ≤ 24 h

Reference: US20060093658A1 (priority 2004, published 2006)
